Measurements published in patent publication US20080064053A1, “Genotoxicity Testing” (priority 2003, published 2008).
Values joined by “and” are separate entries in the source; they are usually repeats but may differ in a detail not shown here. Equal entries are not always repeated. Where two headings read alike, the source gives them in different places.

Tests used:
[1] = test system: RNR3 regulatory element-GFP reporter; assay: RNR3-GFP reporter microplate assay (pGenRNR3); type: cell-based, Saccharomyces cerevisiae; conditions: yeast test strain transformed with pGenRNR3
From the text: (§1) In addition to the RAD54 vectors described in the previous Examples, the inventors constructed an FF18984 reporter strain containing a replicative plasmid harbouring an RNR regulatory element. The vectors pGenRNR2 or pGenRNR3 are shown in FIGS. 24 and 25, respectively, and contain the upstream non-coding DNA sequence of the RNR2 gene or RNR3 gene fused to the yeast-enhanced Aequorea victoria GFP gene. A control FF18984 strain containing an identical plasmid except that 2 base pairs have been removed at the start of the GFP gene, such that no GFP is made, was also examined.
In order to test the brightness of the reporter for RNR3 constructs, similar methodology was used as for RAD54 constructs, as described in the previous Examples, but using instead pGENRNR3.

SOS umuC = conditions: cited from earlier work
SOS lux = conditions: cited from earlier work
[2] = test system: RAD54 promoter-yEGFP reporter; assay: Fluorescence assay with intact yeast cells in cuvettes, RAD54-GFP reporter plasmid pWDH445 and rearranged derivatives; type: cell-based, Saccharomyces cerevisiae; conditions: 0.005% MMS, 15 hours
Procedure: Starter cultures were initiated by inoculating 1.5 ml of F1 medium (plus appropriate nutritional supplements and 2% glucose) in sterile 15 ml polythene centrifuge tubes with small portions of colonies, picked by inoculating loop from stock plates. These starter cultures were grown for up to 24 hours at 30° C. with shaking (at 120 rpm) and were used as the source of inoculum for the assay cultures. Cells were inoculated into 1.5 ml F1 cultures in 15 ml polythene centrifuge tubes to give an initial OD600 nm of ˜0.1 (typically a 10-15 μl inoculum per 1.5 ml culture). The lids of the tubes were left one-quarter unscrewed, but held in place by masking tape, to ensure maximum oxygenation for GFP maturation. Half of the tubes were treated with 0.005% methyl methanesulphonate (MMS, methanesulphonic acid methyl ester) and half left as unchallenged controls. MMS was purchased as a liquid and this stock solution was taken to be 100%. […] For the measurement of intact yeast cell fluorescence of cells grown in YPD or SD, the cells were washed twice in sterile water to remove traces of autofluorescent medium and resuspended in 1.5 ml of sterile water. […] 4-window cuvettes were necessary since measurement of fluorescence emission is performed perpendicular to the path of excitation light.
Fluorescence measurements were performed with a Perkin-Elmer LS50B Fluorescence Spectrometer (Perkin-Elmer Ltd., Beaconsfield, UK). […] For the yEGFP expressing reporter, the excitation and emission wavelengths were set to 490 nm and 518 nm respectively (due to the altered fluorescence characteristics of yEGFP), with 5 nm slit widths. To account for differences in cell numbers between YPD or SD assay cultures, the OD600 nm was recorded for each cuvette. Similarly, in order to measure protein extraction efficiency, light absorption at 280 nm (OD280 nm) was measured for crude cell extracts. […] The y-axis on uncorrected fluorescence scans gives raw data in the form of machine defined fluorescence intensity (“INT”) units. […]

[3] = test system: RAD54 promoter-GFP reporter (pGen001); conditions: for GSA genotoxicity result: GenT01 yeast, overnight at 25° C., 2% DMSO diluent, no S9
[4] = test system: RNR2 regulatory element-GFP reporter; assay: RNR2-GFP reporter assay (pGenRNR2), cuvette and microplate; type: cell-based, Saccharomyces cerevisiae; conditions: yeast test strain transformed with pGenRNR2
From the text: as §1
In order to test the brightness of the reporter for RNR2 constructs, similar methodology was used as for RAD54 constructs, as described in the previous Examples, but using instead pGENRNR2.

[5] = test system: yeast strain GenT01 (FF18984); assay: GreenScreen assay (GSA), cytotoxicity: final cell density by absorbance; conditions: GenT01 yeast, overnight at 25° C.
Procedure: The following standard protocol was followed. A 1 mM stock of the test chemical was prepared in 2% v/v aqueous DMSO, and used to make 2 identical dilution series across the microplate and a ‘control’ (see below). To achieve this, 150 microlitres of the test chemical solution were put into 2 microplate wells. Each sample was serially diluted by transferring 75 microlitres into 75 microlitres of 2% DMSO, mixing, and then taking 75 microlitres out and into the next well. This produced 9 serial dilutions of 75 microlitres each.
75 microlitres of the yeast suspension were added to each well of the diluted chemical: GenT01 to one series and GenC01 to the second, and to appropriate standards and controls. After the plates were filled, they were sealed using either a gas permeable membrane (Breath-easy, Diversified Biotech, USA) or a plastic lid, and then incubated without shaking, overnight at 25° C.
Following overnight incubation, fluorescence and absorbance data were collected from the microplates. […] Absorbance was measured through a 620 nm filter in both instruments. […] Fluorescence data were divided by absorbance data to give ‘brightness units’, the measure of average GFP induction per cell. […] In this way, one can distinguish between a small number of highly fluorescent cells and a large number of weakly fluorescent cells. In order to correct for induced cellular autofluorescence and intrinsic compound fluorescence, the brightness values for the GenC01 strain were subtracted from those of GenT01. This makes visual assessment of the data more reliable.
The cytotoxicity threshold is set at 80% of the cell density reached by the untreated control cells.
Table 12 lists chemicals/solvents that are often used with test samples, to promote dissolution etc. […] If these chemicals are used to dissolve compound stock solutions, they should also be included in the diluent used to make the compound dilution series. […] Interference of DMSO, a free radical scavenger, in the recombinogenic properties of several oxidising agents has previously been reported.

In the case of `COS(C)(=O)=O` [MMS, methyl methanesulfonate], the “fluorescence induction by the reporter” value [1] is given as “increases with increasing concentration”, the “SOS UMUC ASSAY (M), LEC” value (SOS umuC) is given as 0.00015 M and the “SOS LUX ASSAY (M), LEC” value (SOS lux) is given as 7.3e-05 M. The induction ratio ([2]; FF18984 cells bearing normal pWDH445) was 7.72 and 5.5, the induction ratio ([2]; FF18984 cells re-transformed with modified (rearranged) plasmid) was 5.2 and the induction ratio ([2]; original bright variant FF18984 cells carrying pWDH445) was 3.27. For the same molecule, the GSA genotoxicity result [3] was “induced”, the GSA genotoxicity result ([3]; listed as Methyl methanesulfonate) was “genotoxic” and the “GSA (M), lowest effective concentration (LEC)” value ([3]; S9 −) was 9.3e-06 M. The “brightness/fluorescence of GFP reporter” value [4] was “induced” and the GSA cytotoxicity result [5] was “strongly cytotoxic”.
